According to US11931335B2, “Enhancing autophagy or increasing longevity by administration of urolithins or precursors thereof” (Amazentis SA, priority 2012, dated 2024):

How the values were obtained:
[1] = tested on: C. elegans; assay: Pharyngeal pumping in C. elegans; assay type: in vivo; details: day 14 (aged worms); 50 μM; FIG. 11
Procedure: To examine the effect of urolithins on muscle function, pharyngeal pumping was examined in C. elegans worms at day 7 and day 14. Worms were observed using a Nikon SMZ1500 stereomicroscope (Nikon, Melville, NY, USA). Ten L4 worms were transferred on plates containing NGM medium with vehicle (DMSO 0.1%, final concentration) or the compound of interest (urolithin A (UA), urolithin B (UB), urolithin C (UC), urolithin D (UD)) dissolved in DMSO (final concentration 50 μM) and seeded with E. coli RNAi clones as indicated. After 3 days (corresponding to day 0), newly developed 60 to 100 L4 worms were used per condition, scored and transferred to fresh plates every 3 days starting from day 1 (young adult worms). Experiments were performed at 20° C.
The pharyngeal pumping rates at day 7 and 14 were measured for 10 worms by transferring single worms to an unseeded plate and scoring for pharyngeal pumping under a dissecting microscope for 30 seconds. The pharyngeal pumping rates were then computed by extrapolating the pumping made by worms during this 30 second period.

[2] = tested on: gastrocnemius muscles of aged C57BL/6J mice; assay: Autophagy in skeletal muscle of aged mice; assay type: in vivo, mouse; details: 50 mg/kg/day in food, 34 weeks
Procedure: Locomotor activity may be also assessed by measuring animal movements using infrared detection. To determine the effects of urolithin A on spontaneous locomotor activity in aged animals, 16-month-old C57BL/6J mice were treated with either a standard rodent diet or a diet containing urolithin A mixed with food to reach a dosing of 50 mg/kg/day delivered to mice. Following 34 weeks of treatment with urolithin A, mice were placed in a locomotor activity monitoring system, TSE Systems. Infrared transmitters and receivers are placed in the x, y, and z axis. Interruption of the infrared beams in the x, y axis by the passage of the mouse, allows for a measurement of the horizontal movement (ambulation). Interruption of the infrared beams in the z axis by the mouse, allows for the measurement of rearing behavior. Each beam interruption results in one count being recorded. Total counts were measured for each 30 minute period over a two day period. The total counts observed during the 12 hour dark period, which corresponds to the time of highest activity in mice, were summed for each animal.
Following 34 weeks of treatment, the mice from Example 19 were sacrificed and the organs were collected. The gastrocnemius muscles were assessed for the presence of autophagy by the assessment of the change in the ratio of the autophagy markers LC3 and p62 using western blot analysis. Each lane corresponds to a muscle sample from an individual mouse. The ratio of LC3-II/LC3-I increased in the muscles of urolithin A (UA)-treated mice versus untreated mice. This was accompanied by a decrease in the levels of p62 in the muscles of UA treated versus untreated mice. These shifts in the levels of LC3 and p62 in the muscle of mice are consistent with an increase in the level of autophagy taking place.

[3] = tested on: C. elegans strain DA2122 (LGG-1::GFP); assay: Autophagy induction, LGG-1::GFP dots in C. elegans; assay type: in vivo; details: 50 μM from eggs to second day of adulthood; FIGS. 9A-9B
Procedure: C. elegans strains were cultured at 20° C. on nematode growth media (NGM) agar plates seeded with OP50 bacteria and containing 50 μM urolithin A or a corresponding concentration of DMSO as a control. The worms were treated from eggs to the second day of the adulthood. The strains used were the DA2122 (adIs2122[lgg-1::GFP+rol-6(su1006)]), which is a transgenic line expressing the LGG-1 protein (homolog of LC3 in human) fused with the green fluorescent protein (GFP). For picture acquisition, worms were immobilized with tetramisole (Sigma) and mounted on 6% agarose pads on glass slides. Images were acquired using Zeiss LSM 700 upright confocal microscope (Carl Zeiss A G, Oberkochen, Germany) from the same part of C. elegans. For each condition multiple worms were observed and imaged with the same initial parameters. Image processing and quantification of autophagic events was performed with the Fiji software.

[4] = tested on: aged C57BL/6J mice; assay: Running wheel activity in aged high fat diet mice; assay type: in vivo, mouse; details: 50 mg/kg/day, 30 weeks, dark phase of day 2, FIG. 21
Procedure: To examine the effects of urolithin A treatment on motor activity in aged mammals 17-month-old C57BL/6J mice were treated with either a high fat rodent diet or a high fat rodent diet containing urolithin A mixed with food to reach a dosing of 50 mg/kg/day delivered to the mice.
Following 30 weeks of treatment with urolithin A, mice were housed individually and a 23 cm diameter running wheel was placed in the cage of each mouse. Spontaneous exercise activity was measured continuously over a two day period allowing the capture of the circadian rhythm of the exercise activity. Afterwards, mice were returned to their home cages.
Mice became habituated to the presence of the activity wheel on day 1. To measure the effect of urolithin A treatment on activity as well as muscle function, the cumulative distance that animals covered during the peak running period (dark phase) of day 2 was measured.

[5] = tested on: mouse C2C12 myoblasts; assay: Autophagy western blot in C2C12 myoblasts; assay type: cell-based; details: 10 μM, 20 μM, and 50 μM, 16 hours
Procedure: C2C12 myoblast were cultured in Dulbecco's modified Eagle's medium (DMEM) including 4.5 g/L glucose, 20% fetal calf serum, and 50 μg/mL gentamicin. Urolithin A was dissolved in DMSO in a stock solution of […]. Cells were treated at final concentrations of urolithin A of 10 μM, 20 μM, and 50 μM for a period 16 hours. Control cells were treated with DMSO at an equivalent final concentration for the same period and served as the untreated control.
At the end of treatment, cells were lysed with RIPA buffer and applied to SDS-PAGE and analyzed by western blot. Protein expression levels were examined for autophagy-related proteins LC3-I and LC3-II (Cell Signaling antibody #4108), p62 (Cell Signaling antibody #5114), AMPKα (Cell Signaling antibody #2603), and p-AMPKα(Cell Signaling antibody #2531). The housekeeping protein, R-actin (Cell Signaling Antibody #4967) level was measured as a loading control.

Structure (SMILES): O=c1oc2cc(O)ccc2c2ccc(O)cc12 [Urolithin A, urolithin A]
- pharyngeal pumping (muscle function) [1]: decreases the age related decline in muscle activity
- levels of p62 [2]: decreased
- ratio of p-AMPKα/AMPKα [2]: increase
- ratio of LC3-II/LC3-I ([2]; FIG. 24): increased
- levels of p62 ([2]; listed as UA): decrease
- number of autophagic events (LGG-1::GFP dots per focal field) [3]: increases the number of autophagic events
- increase in cumulative distance run [4]: 57%
- levels of p62 [5]: decrease
- ratio of pAMPKα/AMPKα [5]: increasing several fold
- ratio of LC3-II to LC3-I ([5]; FIG. 16): dose-dependent increase
